The record followed here is patent publication US10174384B2, “Use of the ZMIZ1 marker in directing treatment and predicting survival in cancer” (THE JOHNS HOPKINS UNIVERSITY, priority 2015, dated 2019).

In the series the test system is U251 cell line. As to the kind of experiment: Cell titer glo viability, siRNA combined with temozolamide. Format: cell-based. The following applies: three days post treatment, combined with 1 mM temozolamide, p<0.0001 vs siRNA alone, P<0.01 vs temozolamide alone. An excerpt:
siRNA s32836 targeting both the full ZMIZ1 transcript (uc001kaf.2) and the truncated ZMIZ1 transcript (uc001kag.2) was purchased from Life Technologies (Grand Island, N.Y., USA), and two custom designed Stealth siRNAs (referred to as 56 and 62) targeting specifically uc001kag.2 were designed (Life Technologies) for all in vitro assays. The sequence of stealth_56 is Sense: […] (SEQ ID NO:23), Anti-Sense: […] (SEQ ID NO:24), the sequence for stealth_62 is Sense: […] (SEQ ID NO:25), Anti-Sense: […] (SEQ ID NO:26). Appropriate scrambled siRNAs were used as controls. Hyper-expressing plasmids were designed for both the full and the truncated plasmids. Appropriate empty vector was used as control for all in vitro assays described. Cells were transfected using Lipofectamine 2000 and the respective siRNA or plasmid and were treated for 6 h. The media was changed after 6 h and the regular culture media was subsequently used.
U87 and U251 GBM cell lines were treated with varying doses of temozolamide (Sigma Aldrich, St Louis, Mo.). 1000 cells/well were seeded in a 96 well plate. […] Cells were followed for 3 days, and at the third day, viability was assessed with the cell titer glo assay.
(Cellular ATP, detected with luciferase, serves as a proxy for viable cell number.)

“56 siRNA: custom designed Stealth siRNA targeting specifically uc001kag.2; Sense SEQ ID NO:23, Anti-Sense SEQ ID NO:24 (sense CCGGUGCAACUUCUAGCCUUGUUGU; antisense ACAACAAGGCUAGAAGUUGCACCGG; Stealth siRNA, chemical modification pattern not given here)”: the “viability, combination compared to siRNA alone or temozolamide alone” value is given as “statistically significant decrease in viability”.
